Test results reported in US12661415B2, “Isoindolinone compounds and imaging agents for imaging Huntingtin protein” (CHDI Foundation, Inc., priority 2021, dated 2026).

Assays:
[1] = Unbound brain fraction (fu,brain) in mouse brain by equilibrium dialysis; assay type: in vitro ADME; details: 20% mouse brain homogenate, 5 μM, equilibrium dialysis 6 h at 37° C., average of triplicate
Experimental: Compounds were tested for unbounded brain fraction (or free fraction in brain, fu,brain). It is an accepted standard in the CNS PET imaging field that compounds with low unbound fraction in brain (<5%) likely have high non-specific binding background that is undesirable for the detection of target binding. As a result, fu,brain is an important property in the design of PET ligands for brain imaging [see Zhang et al., Design and selection parameters to accelerate the discovery of novel central nervous system positron emission tomography (PET) ligands and their application in the development of a novel phosphodiesterase 2A PET ligand. J Med Chem 2013, 56 (11), 4568-79; Liu et al., Imaging Mutant Huntingtin Aggregates: Development of a Potential PET Ligand. J Med Chem 2020, 63 (15), 8608-8633].
Determining fu,brain in Mouse Brain by Equilibrium Dialysis. Dialysis membranes (12-14 kDa) (HTDialysis, Connecticut) were soaked in phosphate buffer (10 mM potassium phosphate and 0.8% sodium chloride buffer, pH 7.4 at 37° C.) for a minimum of 1 h, at this time ethanol was added (final concentration of 20% v/v) and membranes continued to soak for 30 min Mouse brain tissue was diluted in phosphate buffer in a […] (w/v) and homogenised using a Precellys 24 (Stretton Scientific, UK) to achieve a final concentration of 20% brain homogenate.
Test compounds prepared as DMSO stocks at 0.5 mM are diluted into brain homogenate to achieve 5 μM final substrate concentration (1% DMSO) and a t=0 sample was prepared by sampling 50 μL of into 400 μL of quench solution (Acetonitrile containing 0.1% formic acid and sulfisoxazole/tolbutamide/imipramine/labetalol 200 nM). Samples were matrix matched with the addition of 50 μL of assay buffer. The HTDialysis Teflon blocks (HTDialysis, Connecticut) were assembled with pre-soaked membrane between each receiver and donor well and clamped in the stainless steel pressure plate (HTDialysis, Connecticut). The lower compartment (acceptor side) was dosed with 120 μL of buffer and the upper compartment (donor side) was dosed with 120 μL of compound in homogenate. All test compounds and controls were completed in triplicate. The HT dialysis plate was sealed and incubated for 6 h at 37° C. shaking at 250 rpm.
Following the incubation, 50 μL of sample was removed from all donor and acceptor wells and transferred into a quench plate containing 400 μL of quench solution. All samples were matrix matched with 50 μL of the alternate blank matrix. Analytical samples were diluted 1:1 with water using the Janus Robot and analysed by LC-MS/MS.
Peak areas of donor and acceptor compartments were compared to determine percent unbound (% fu) and the average of triplicate measurements was reported. Reference T0 sample was used to calculate sample recovery (%). Control compounds were compared with historic and literature values to ensure assay functionality.

[2] = target: T1, MBP-HTT(1-89)Q46-His(6×) (Exon1-Q46) protein aggregates (Homo sapiens, UniProt P42858, INS38QQQQQQQQQQQQQQQQQQQQQQQQQ); experiment: Exon1-Q46 radioligand binding assay (RBA); details: aggregated Exon1-Q46 1 μM; 0.3 nM ligand [3H3-methyl]-5-((5-methoxypyridin-2-yl)methoxy)-2-(pyrazin-2-yl)benzo[d]oxazole; 60 minutes at 37° C.; read-out: Potency Range (IC50)
T1 construct: MBP-HTT(1-89)Q46-His(6×); His(6×) (C); made in house
Experimental: Exon1-Q46 Radioligand Binding Assay
For radioligand binding assays (RBA) MBP-HTT(1-89)Q46-His(6×) (“Exon1-Q46”) protein was generated based on a previous publication (Scherzinger et al. Cell, Vol. 90, 549-558, Aug. 8, 1997). For experiments 30 μM MBP-Exon1-Q46 was incubated with 150 μg/mL thrombin in assay buffer (150 mM NaCl, 50 mM Tris pH 8.0) and 2 mM CaCl2 for 16 hours at 37° C. Aggregated Exon1-Q46 was pelleted by centrifugation for 5 minutes at 13,000 rpm in a bench top centrifuge and re-dissolved in the same volume of assay buffer. Test compounds were prepared by titration in DMSO at 11 concentrations from 63 μM to 2 nM. For the RBA, Exon1-Q46 protein aggregates and test compounds were pre-incubated in assay buffer for 20 minutes at room temperature, in 100 μL/well in a 96-well plate (pp, round bottom). Then, ligand was added in 50 μL/well and incubated for 60 minutes at 37° C. Final assay concentrations were 1 μM to 30 pM test compound, 1 μM Exon1-Q46 protein (equivalent monomer concentration) and 0.3 nM ligand [^3H3-methyl]-5-((5-methoxypyridin-2-yl)methoxy)-2-(pyrazin-2-yl)benzo[d]oxazole. Samples were transferred onto GF/B filter plates and washed 2× with 200 μL PBS using a Filtermate Harvester. After drying filter plates for 1 hour at 55° C., the back of the plates were sealed with foil and 30 μL/well scintillation fluid (Packard MicroScint 40) added, incubated for 15 minutes in the dark and counted in a MicroBeta reader. For analysis, replicate data from independent assay plates were normalized towards 0% and 100% inhibition using control wells of vehicle (0% inhibition) and 1 μM unlabelled [^3H3-methyl]-5-((5-methoxypyridin-2-yl)methoxy)-2-(pyrazin-2-yl)benzo[d]oxazole (100% inhibition). IC50 values were determined with a sigmoidal inhibition model with four variables (top, bottom, slope, IC50) in a global fit using the normalized replicate data.
The results for various example compounds were as provided in the table below (+++<100 nM; ++100−500 nM; +>500 nM; ND: not determined): […]

T1 sequence (P42858 with tags, fused parts or gaps with the stated changes): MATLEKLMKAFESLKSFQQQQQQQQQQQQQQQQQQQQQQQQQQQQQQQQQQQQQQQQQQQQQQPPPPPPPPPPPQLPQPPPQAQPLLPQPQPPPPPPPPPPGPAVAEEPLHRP

Row | Mean Free Brain Fraction (%) [1] [%] | IC50 [2] [nM] | SMILES
1 | 14.3 | < 100 | Cn1nc(N2Cc3cc(OCc4ccc(OCCF)cn4)ccc3C2=O)ccc1=O [Compound 2-1, 5-{[5-(2-Fluoroethoxy)pyridin-2-yl]methoxy}-2-(1-methyl-6-oxo-1,6-dihydro-pyridazin-3-yl)-2,3-dihydro-1H-isoindol-1-one]
2 | 12.7 | < 100 | Cn1nc(N2Cc3cc(OCc4ccc(OCF)cn4)ccc3C2=O)ccc1=O [Compound 2-2, 5-{[5-(Fluoromethoxy)pyridin-2-yl]methoxy}-2-(1-methyl-6-oxo-1,6-dihydropyridazin-3-yl)-2,3-dihydro-1H-isoindol-1-one]
3 | – | < 100 | Cn1nc(N2Cc3cc(OCc4ccc(O)cn4)ccc3C2=O)ccc1=O [Compound 4-1, 5-[(5-Hydroxypyridin-2-yl)methoxy]-2-(1-methyl-6-oxo-1,6-dihydropyridazin-3-yl)-2,3-dihydro-1H-isoindol-1-one]
4 | – | 100 to 500 | COc1ccc(COc2ccc3c(c2)CN(Cc2ccc(OC)nc2)C3=O)nc1 [Compound 7-1, 5-[(5-Methoxypyridin-2-yl)methoxy]-2-[(6-methoxypyridin-3-yl)methyl]-2,3-dihydro-1H-isoindol-1-one]
5 | – | < 100 | [2H]C([2H])(F)C([2H])([2H])Oc1ccc(COc2ccc3c(c2)CN(c2ccc(=O)[nH]n2)C3=O)nc1 [Compound 9-2, 5-((5-(2-Fluoroethoxy-1,1,2,2-^2H4)pyridin-2-yl)methoxy)-2-(6-oxo-1,6-dihydropyridazin-3-yl)isoindolin-1-one]
6 | – | < 100 | [2H]C([2H])(F)C([2H])([2H])Oc1ccc(COc2cnc3c(c2)CN(c2ccc(=O)n(C)n2)C3=O)nc1 [Compound 12-9, 6-[3-([5-[2-Fluoro(1,1,2,2-^2H4)ethoxy]pyridin-2-yl]methoxy)-7-oxo-5H,6H,7H-pyrrolo[3,4-b]pyridin-6-yl]-2-methyl-2,3-dihydropyridazin-3-one]

Continued, molecule first:

Row | SMILES | Mean Free Brain Fraction (%) [1] [%] | IC50 [2] [nM]
7 | COc1ccc(COc2ccc3c(c2)CN(c2ccc(=O)n(C)n2)C3)nc1 [Comparative Compound 1, reference compound] | 1.3 | –
8 | Cn1nc(N2Cc3cc(OCc4ccc(F)cn4)ccc3C2=O)ccc1=O [Compound 1-1, 5-((5-Fluoropyridin-2-yl)methoxy)-2-(1-methyl-6-oxo-1,6-dihydropyridazin-3-yl)isoindolin-1-one] | 12.0 | < 100
9 | Cn1nc(N2Cc3cc(OCc4ccc(I)cn4)ccc3C2=O)ccc1=O [Compound 1-3, 5-[(5-Iodopyridin-2-yl)methoxy]-2-(1-methyl-6-oxo-1,6-dihydropyridazin-3-yl)-2,3-dihydro-1H-isoindol-1-one] | 1.2 | < 100
10 | COc1ccc(COc2ccc3c(c2)CN(c2ccncc2)C3=O)nc1 [Compound 1-4, 5-[(5-Methoxypyridin-2-yl)methoxy]-2-(pyridin-4-yl)-2,3-dihydro-1H-isoindol-1-one] | 3.0 | < 100
11 | Cn1nc(N2Cc3cc(O)ccc3C2=O)ccc1=O [Compound 1-5, 5-Hydroxy-2-(1-methyl-6-oxo-1,6-dihydropyridazin-3-yl)-2,3-dihydro-1H-isoindol-1-one] | – | < 100
12 | COc1ccc(COc2ccc3c(c2)CN(c2ccc(=O)n(C)n2)C3=O)nc1 [Compound 1-6, 5-[(5-Methoxypyridin-2-yl)methoxy]-2-(1-methyl-6-oxo-1,6-dihydropyridazin-3-yl)-2,3-dihydro-1H-isoindol-1-one] | 9.8 | < 100
13 | COc1cnc(COc2ccc3c(c2)CN(c2ccc(=O)n(C)n2)C3=O)c(F)c1 [Compound 1-7, 5-[(3-Fluoro-5-methoxypyridin-2-yl)methoxy]-2-(1-methyl-6-oxo-1,6-dihydropyridazin-3-yl)-2,3-dihydro-1H-isoindol-1-one] | 11.9 | < 100
14 | [2H]C([2H])(F)C([2H])([2H])Oc1ccc(COc2ccc3c(c2)CN(c2ccc(=O)n(C)n2)C3=O)nc1 [Compound 1-8, 5-({5-[2-Fluoro(1,1,2,2-^2H4)ethoxy]pyridin-2-yl}methoxy)-2-(1-methyl-6-oxo-1,6-dihydropyridazin-3-yl)-2,3-dihydro-1H-isoindol-1-one] | 10.1 | < 100
15 | [2H]C([2H])(Oc1ccc(COc2ccc3c(c2)CN(c2ccc(=O)n(C)n2)C3=O)nc1)C([2H])([2H])OS(=O)(=O)c1ccc(C)cc1 [Compound 1-9, 2-{[6-({[2-(1-Methyl-6-oxo-1,6-dihydropyridazin-3-yl)-1-oxo-2,3-dihydro-1H-isoindol-5-yl]oxy}methyl)pyridin-3-yl]oxy}(1,1,2,2-^2H4)ethyl 4-methylbenzene-1-sulfonate] | – | < 100
16 | CC(F)Oc1ccc(COc2ccc3c(c2)CN(c2ccc(=O)n(C)n2)C3=O)nc1 (centres unmarked) [Compound 1-10, 5-{[5-(1-Fluoroethoxy)pyridin-2-yl]methoxy}-2-(1-methyl-6-oxo-1,6-dihydropyridazin-3-yl)-2,3-dihydro-1H-isoindol-1-one] | 3.8 | < 100
17 | COc1cnc(COc2ccc3c(c2)CN(c2ccc(=O)n(C)n2)C3=O)cc1Cl [Compound 1-11, 5-[(4-Chloro-5-methoxypyridin-2-yl)methoxy]-2-(1-methyl-6-oxo-1,6-dihydropyridazin-3-yl)-2,3-dihydro-1H-isoindol-1-one] | 1.6 | < 100
18 | COc1ccc(COc2ccc3c(c2)C(=O)N(c2ccc(=O)n(C)n2)C3)nc1 [Compound 1-12, 6-[(5-Methoxypyridin-2-yl)methoxy]-2-(1-methyl-6-oxo-1,6-dihydropyridazin-3-yl)-2,3-dihydro-1H-isoindol-1-one] | 9.0 | < 100
19 | COc1ccc(COc2ccc3c(c2)CN(c2ccc(=O)n(C)n2)C3=O)nc1F [Compound 1-13, 5-[(6-Fluoro-5-methoxy-2-pyridyl)methoxy]-2-(1-methyl-6-oxo-pyridazin-3-yl)isoindolin-1-one] | 7.0 | < 100
20 | COc1cnc(COc2ccc3c(c2)CN(c2ccc(=O)n(C)n2)C3=O)cc1F [Compound 1-14, 5-[(4-Fluoro-5-methoxypyridin-2-yl)methoxy]-2-(1-methyl-6-oxo-1,6-dihydropyridazin-3-yl)-2,3-dihydro-1H-isoindol-1-one] | 12.0 | –
